Reference: patent EP0179667B1, “N6-substituted adenosines” (priority 1984, dated 1986)

Legend:
adenosine A1 receptor = target: T1, adenosine A1 receptor (Rattus norvegicus, UniProt P25099); experiment: Adenosine Receptor Binding - A1 Receptor Affinity (RBA1); conditions: [3H]-CHA, rat whole brain membranes; read-out: RBA-1
T1 construct: Whole brain minus cerebellum and brainstem from male Long Evans rats (150-200 g) was homogenized; from tissue; host or cells: rat whole brain minus cerebellum and brainstem, membrane homogenate
T1 sequence (P25099 1-326): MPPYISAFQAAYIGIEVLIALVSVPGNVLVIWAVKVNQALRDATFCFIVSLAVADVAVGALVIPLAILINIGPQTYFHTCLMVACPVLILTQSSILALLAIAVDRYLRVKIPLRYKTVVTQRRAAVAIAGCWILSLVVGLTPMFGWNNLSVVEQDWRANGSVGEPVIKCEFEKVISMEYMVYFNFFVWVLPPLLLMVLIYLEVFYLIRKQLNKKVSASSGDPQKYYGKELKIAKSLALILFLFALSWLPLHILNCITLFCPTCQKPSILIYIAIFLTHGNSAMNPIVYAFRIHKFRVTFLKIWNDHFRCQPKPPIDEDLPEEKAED

Swiss-Webster male mice [1] = experiment: Mouse Activity and Screen Test Procedure (MAST): screen test (ST); format: in vivo; conditions: one hour postinjection
Swiss-Webster male mice [2] = experiment: Mouse Activity and Screen Test Procedure (MAST): locomotor activity in actophotometer; format: in vivo; conditions: one hour prior to testing

Screen test failure (Swiss-Webster male mice [1]; 100 mg/kg intraperitoneally) [%] | SMILES | IC50 (adenosine A1 receptor) [nM] | Screen test failure (Swiss-Webster male mice [1]; 0.3 mg/kg intraperitoneally) [%] | Screen test failure (Swiss-Webster male mice [1]; 1 mg/kg intraperitoneally) [%] | Screen test failure (Swiss-Webster male mice [1]; 3 mg/kg intraperitoneally) [%] | Screen test failure (Swiss-Webster male mice [1]; 10 mg/kg intraperitoneally) [%] | Screen test failure (Swiss-Webster male mice [1]; 30 mg/kg intraperitoneally) [%] | Inhibition of mouse locomotor activity (Swiss-Webster male mice [2]; 0.3 mg/kg intraperitoneally) [%] | Inhibition of mouse locomotor activity (Swiss-Webster male mice [2]; 1 mg/kg intraperitoneally) [%] | Inhibition of mouse locomotor activity (Swiss-Webster male mice [2]; 3 mg/kg intraperitoneally) [%] | Inhibition of mouse locomotor activity (Swiss-Webster male mice [2]; 10 mg/kg intraperitoneally) [%] | Inhibition of mouse locomotor activity (Swiss-Webster male mice [2]; 30 mg/kg intraperitoneally) [%] | Inhibition of mouse locomotor activity (Swiss-Webster male mice [2]; 100 mg/kg intraperitoneally) [%]
 | OC[C@H]1O[C@@H](n2cnc3c(NCC4CCc5ccccc54)ncnc32)[C@H](O)[C@@H]1O (stereo partly shown) [Example 21, N^6-[2,3-dihydro-1H-inden-1-yl]methyladenosine] | 9 | 0 | 0 | 0 | 22 | 55 | −19 | 23 | 61 | 82 | 99 | 
44 | COc1ccc2c(c1)CCCC2Nc1ncnc2c1ncn2[C@@H]1O[C@H](CO)[C@@H](O)[C@H]1O (stereo partly shown) [Example 6, N^6-[1-(6-Methoxy)-tetralinyl]-adenosine] | 126 |  | 0 | 0 | 0 | 44 |  | 22 | 3 | 62 | 94 | 99
